Assays:
Sitophilus zeamais [1] = assay: Antifeedant activity against adult of Sitophilus zeamais assessed as relative consumption rate at 300 ppm after 3 days relative to control; format: functional
Tribolium castaneum [2] = assay: Antifeedant activity against adult of Tribolium castaneum (red flour beetle) assessed as relative consumption rate at 300 ppm after 3 days relative to control; format: functional
Tribolium castaneum [3] = assay: Antifeedant activity against larvae of Tribolium castaneum (red flour beetle) assessed as feeding deterrence index at 3 ppm after 3 days relative to control; format: functional
Tribolium castaneum [4] = assay: Antifeedant activity against larvae of Tribolium castaneum (red flour beetle) assessed as relative consumption rate at 300 ppm after 3 days relative to control; format: functional
Sitophilus zeamais [5] = assay: Antifeedant activity against adult of Sitophilus zeamais assessed as relative growth rate at 30 ppm after 3 days relative to control; format: functional
Sitophilus zeamais [6] = assay: Antifeedant activity against adult of Sitophilus zeamais assessed as relative growth rate at 3 ppm after 3 days relative to control; format: functional
Sitophilus zeamais [7] = assay: Antifeedant activity against adult of Sitophilus zeamais assessed as mortality at 30 ppm after 3 days relative to control; format: functional; settings: 72 h
Sitophilus zeamais [8] = assay: Antifeedant activity against adult of Sitophilus zeamais assessed as feeding deterrence index at 30 ppm after 3 days relative to control; format: functional
Sitophilus zeamais [9] = assay: Antifeedant activity against adult of Sitophilus zeamais assessed as relative consumption rate at 30 ppm after 3 days relative to control; format: functional
Tribolium castaneum [10] = assay: Antifeedant activity against adult of Tribolium castaneum (red flour beetle) assessed as relative consumption rate at 100 ppm after 3 days relative to control; format: functional
Tribolium castaneum [11] = assay: Antifeedant activity against larvae of Tribolium castaneum (red flour beetle) assessed as efficiency of conversion of ingested food at 3 ppm after 3 days relative to control; format: functional
Tribolium castaneum [12] = assay: Antifeedant activity against larvae of Tribolium castaneum (red flour beetle) assessed as relative consumption rate at 30 ppm after 3 days relative to control; format: functional
Tribolium castaneum [13] = assay: Antifeedant activity against adult of Tribolium castaneum (red flour beetle) assessed as mortality at 300 ppm after 3 days relative to control; format: functional; settings: 72 h
Sitophilus zeamais [14] = assay: Antifeedant activity against adult of Sitophilus zeamais assessed as efficiency of conversion of ingested food at 100 ppm after 3 days relative to control; format: functional
Tribolium castaneum [15] = assay: Antifeedant activity against adult of Tribolium castaneum (red flour beetle) assessed as feeding deterrence index at 3 ppm after 3 days relative to control; format: functional
Tribolium castaneum [16] = assay: Antifeedant activity against larvae of Tribolium castaneum (red flour beetle) assessed as feeding deterrence index at 30 ppm after 3 days relative to control; format: functional
Tribolium castaneum [17] = assay: Antifeedant activity against larvae of Tribolium castaneum (red flour beetle) assessed as mortality at 300 ppm after 3 days relative to control; format: functional; settings: 72 h
Tribolium castaneum [18] = assay: Antifeedant activity against adult of Tribolium castaneum (red flour beetle) assessed as feeding deterrence index at 30 ppm after 3 days relative to control; format: functional
Sitophilus zeamais [19] = assay: Antifeedant activity against adult of Sitophilus zeamais assessed as mortality at 300 ppm after 3 days relative to control; format: functional; settings: 72 h
Tribolium castaneum [20] = assay: Antifeedant activity against adult of Tribolium castaneum (red flour beetle) assessed as mortality at 100 ppm after 3 days relative to control; format: functional; settings: 72 h
Tribolium castaneum [21] = assay: Antifeedant activity against larvae of Tribolium castaneum (red flour beetle) assessed as feeding deterrence index at 10 ppm after 3 days relative to control; format: functional
Sitophilus zeamais [22] = assay: Antifeedant activity against adult of Sitophilus zeamais assessed as relative growth rate at 100 ppm after 3 days relative to control; format: functional
Sitophilus zeamais [23] = assay: Antifeedant activity against adult of Sitophilus zeamais assessed as relative consumption rate at 3 ppm after 3 days relative to control; format: functional
Tribolium castaneum [24] = assay: Antifeedant activity against adult of Tribolium castaneum (red flour beetle) assessed as efficiency of conversion of ingested food at 300 ppm after 3 days relative to control; format: functional, Instar larval stage
Tribolium castaneum [25] = assay: Antifeedant activity against larvae of Tribolium castaneum (red flour beetle) assessed as mortality at 3 ppm after 3 days relative to control; format: functional; settings: 72 h
Sitophilus zeamais [26] = assay: Antifeedant activity against adult of Sitophilus zeamais assessed as mortality at 10 ppm after 3 days relative to control; format: functional; settings: 72 h
Tribolium castaneum [27] = assay: Antifeedant activity against adult of Tribolium castaneum (red flour beetle) assessed as feeding deterrence index at 300 ppm after 3 days relative to control; format: functional
Tribolium castaneum [28] = assay: Antifeedant activity against adult of Tribolium castaneum (red flour beetle) assessed as relative growth rate at 3 ppm after 3 days relative to control; format: functional
Tribolium castaneum [29] = assay: Antifeedant activity against larvae of Tribolium castaneum (red flour beetle) assessed as relative growth rate at 30 ppm after 3 days relative to control; format: functional
Sitophilus zeamais [30] = assay: Antifeedant activity against adult of Sitophilus zeamais assessed as feeding deterrence index at 100 ppm after 3 days relative to control; format: functional
Tribolium castaneum [31] = assay: Antifeedant activity against larvae of Tribolium castaneum (red flour beetle) assessed as mortality at 100 ppm after 3 days relative to control; format: functional; settings: 72 h
Tribolium castaneum [32] = assay: Antifeedant activity against larvae of Tribolium castaneum (red flour beetle) assessed as mortality at 10 ppm after 3 days relative to control; format: functional; settings: 72 h
Sitophilus zeamais [33] = assay: Antifeedant activity against adult of Sitophilus zeamais assessed as mortality at 100 ppm after 3 days relative to control; format: functional; settings: 72 h
Tribolium castaneum [34] = assay: Antifeedant activity against larvae of Tribolium castaneum (red flour beetle) assessed as efficiency of conversion of ingested food at 10 ppm after 3 days relative to control; format: functional, Instar larval stage
Tribolium castaneum [35] = assay: Antifeedant activity against adult of Tribolium castaneum (red flour beetle) assessed as relative growth rate at 10 ppm after 3 days relative to control; format: functional
Tribolium castaneum [36] = assay: Antifeedant activity against adult of Tribolium castaneum (red flour beetle) assessed as relative consumption rate at 3 ppm after 3 days relative to control; format: functional
Tribolium castaneum [37] = assay: Antifeedant activity against larvae of Tribolium castaneum (red flour beetle) assessed as relative growth rate at 10 ppm after 3 days relative to control; format: functional
Tribolium castaneum [38] = assay: Antifeedant activity against adult of Tribolium castaneum (red flour beetle) assessed as feeding deterrence index at 100 ppm after 3 days relative to control; format: functional
Tribolium castaneum [39] = assay: Antifeedant activity against adult of Tribolium castaneum (red flour beetle) assessed as relative growth rate at 100 ppm after 3 days relative to control; format: functional
Sitophilus zeamais [40] = assay: Antifeedant activity against adult of Sitophilus zeamais assessed as feeding deterrence index at 10 ppm after 3 days relative to control; format: functional
Tribolium castaneum [41] = assay: Antifeedant activity against larvae of Tribolium castaneum (red flour beetle) assessed as efficiency of conversion of ingested food at 30 ppm after 3 days relative to control; format: functional, Instar larval stage
Sitophilus zeamais [42] = assay: Antifeedant activity against adult of Sitophilus zeamais assessed as feeding deterrence index at 300 ppm after 3 days relative to control; format: functional
Tribolium castaneum [43] = assay: Antifeedant activity against adult of Tribolium castaneum (red flour beetle) assessed as relative consumption rate at 10 ppm after 3 days relative to control; format: functional
Sitophilus zeamais [44] = assay: Antifeedant activity against adult of Sitophilus zeamais assessed as efficiency of conversion of ingested food at 10 ppm after 3 days relative to control; format: functional
Sitophilus zeamais [45] = assay: Antifeedant activity against adult of Sitophilus zeamais assessed as relative growth rate at 300 ppm after 3 days relative to control; format: functional
Tribolium castaneum [46] = assay: Antifeedant activity against adult of Tribolium castaneum (red flour beetle) assessed as efficiency of conversion of ingested food at 100 ppm after 3 days relative to control; format: functional
Sitophilus zeamais [47] = assay: Antifeedant activity against adult of Sitophilus zeamais assessed as efficiency of conversion of ingested food at 30 ppm after 3 days relative to control; format: functional
Tribolium castaneum [48] = assay: Antifeedant activity against adult of Tribolium castaneum (red flour beetle) assessed as feeding deterrence index at 10 ppm after 3 days relative to control; format: functional

## COc1c2ccccc2nc2occc12 [DICTAMNINE]
Sitophilus zeamais [1]
  Activity: 35.13 µg/mg/day
Tribolium castaneum [2]
  Activity: 22.21 µg/mg/day
Tribolium castaneum [3]
  FDI: 4.59%
Tribolium castaneum [4]
  Activity: 84.83 µg/mg/day
Sitophilus zeamais [5]
  Activity: 12.08 µg/mg/day
Sitophilus zeamais [6]
  Activity: 15.71 µg/mg/day
Sitophilus zeamais [7]
  mortality at 30 ppm: 0%
Sitophilus zeamais [8]
  FDI: 30.99%
Sitophilus zeamais [9]
  Activity: 86.75 µg/mg/day
Tribolium castaneum [10]
  Activity: 59.8 µg/mg/day
Tribolium castaneum [11]
  Activity: 19.8%
Tribolium castaneum [12]
  Activity: 168.23 µg/mg/day
Tribolium castaneum [13]
  mortality at 300 ppm: 2%
Sitophilus zeamais [14]
  Activity: 9.73%
Tribolium castaneum [15]
  FDI: 7.31%
Tribolium castaneum [16]
  FDI: 38.52%
Tribolium castaneum [17]
  mortality at 300 ppm: 4%
Tribolium castaneum [18]
  FDI: 32.38%
Sitophilus zeamais [19]
  mortality at 300 ppm: 0%
Tribolium castaneum [20]
  mortality at 100 ppm: 0%
Tribolium castaneum [21]
  FDI: 21.77%
Sitophilus zeamais [22]
  Activity: 9.49 µg/mg/day
Sitophilus zeamais [23]
  Activity: 126.78 µg/mg/day
Tribolium castaneum [24]
  Activity: 13.81%
Tribolium castaneum [25]
  mortality at 3 ppm: 0%
Sitophilus zeamais [26]
  mortality at 10 ppm: 0%
Tribolium castaneum [27]
  FDI: 81.24%
Tribolium castaneum [28]
  Activity: 29.56 µg/mg/day
Tribolium castaneum [29]
  Activity: 31.75 µg/mg/day
Sitophilus zeamais [30]
  FDI: 51.77%
Tribolium castaneum [31]
  mortality at 100 ppm: 0%
Tribolium castaneum [32]
  mortality at 10 ppm: 0%
Sitophilus zeamais [33]
  mortality at 100 ppm: 0%
Tribolium castaneum [34]
  Activity: 18.07%
Tribolium castaneum [35]
  Activity: 27.3 µg/mg/day
Tribolium castaneum [36]
  Activity: 132.89 µg/mg/day
Tribolium castaneum [37]
  Activity: 47.56 µg/mg/day
Tribolium castaneum [38]
  FDI: 59.58%
Tribolium castaneum [39]
  Activity: 13.49 µg/mg/day
Sitophilus zeamais [40]
  FDI: 17.87%
Tribolium castaneum [41]
  Activity: 20.53%
Sitophilus zeamais [42]
  FDI: 68.04%
Tribolium castaneum [43]
  Activity: 129.71 µg/mg/day
Sitophilus zeamais [44]
  Activity: 10.42%
Sitophilus zeamais [45]
  Activity: 3.21 µg/mg/day
Tribolium castaneum [46]
  Activity: 17.88%
Sitophilus zeamais [47]
  Activity: 9.78%
Tribolium castaneum [48]
  FDI: 17.06%

## CC1=C2C(=O)O[C@@H](c3ccoc3)[C@]2(C)CCC1 [FRAXINELLONE]
Sitophilus zeamais [1]
  Activity: 35.29 µg/mg/day
Tribolium castaneum [2]
  Activity: 7.39 µg/mg/day
Tribolium castaneum [3]
  FDI: 11.65%
Tribolium castaneum [4]
  Activity: 30.12 µg/mg/day
Sitophilus zeamais [5]
  Activity: 10.06 µg/mg/day
Sitophilus zeamais [6]
  Activity: 15.22 µg/mg/day
Sitophilus zeamais [7]
  mortality at 30 ppm: 2%
Sitophilus zeamais [8]
  FDI: 30.76%
Sitophilus zeamais [9]
  Activity: 113.45 µg/mg/day
Tribolium castaneum [10]
  Activity: 60.43 µg/mg/day
Tribolium castaneum [11]
  Activity: 22.62%
Tribolium castaneum [12]
  Activity: 163.61 µg/mg/day
Tribolium castaneum [13]
  mortality at 300 ppm: 4%
Sitophilus zeamais [14]
  Activity: 9.66%
Tribolium castaneum [15]
  FDI: 8.46%
Tribolium castaneum [16]
  FDI: 50.33%
Tribolium castaneum [17]
  mortality at 300 ppm: 12%
Tribolium castaneum [18]
  FDI: 40.07%
Sitophilus zeamais [19]
  mortality at 300 ppm: 4%
Tribolium castaneum [20]
  mortality at 100 ppm: 0%
Tribolium castaneum [21]
  FDI: 24.45%
Sitophilus zeamais [22]
  Activity: 7.05 µg/mg/day
Sitophilus zeamais [23]
  Activity: 133.85 µg/mg/day
Tribolium castaneum [24]
  Activity: 10.07%
Tribolium castaneum [25]
  mortality at 3 ppm: 0%
Sitophilus zeamais [26]
  mortality at 10 ppm: 0%
Tribolium castaneum [27]
  FDI: 95.05%
Tribolium castaneum [28]
  Activity: 30.45 µg/mg/day
Tribolium castaneum [29]
  Activity: 23.22 µg/mg/day
Sitophilus zeamais [30]
  FDI: 54.09%
Tribolium castaneum [31]
  mortality at 100 ppm: 0%
Tribolium castaneum [32]
  mortality at 10 ppm: 0%
Sitophilus zeamais [33]
  mortality at 100 ppm: 0%
Tribolium castaneum [34]
  Activity: 20.9%
Tribolium castaneum [35]
  Activity: 23.64 µg/mg/day
Tribolium castaneum [36]
  Activity: 140.68 µg/mg/day
Tribolium castaneum [37]
  Activity: 41.3 µg/mg/day
Tribolium castaneum [38]
  FDI: 69.28%
Tribolium castaneum [39]
  Activity: 9.41 µg/mg/day
Sitophilus zeamais [40]
  FDI: 15.68%
Tribolium castaneum [41]
  Activity: 17.81%
Sitophilus zeamais [42]
  FDI: 77.77%
Tribolium castaneum [43]
  Activity: 120.94 µg/mg/day
Sitophilus zeamais [44]
  Activity: 11.25%
Sitophilus zeamais [45]
  Activity: 4.26 µg/mg/day
Tribolium castaneum [46]
  Activity: 17.57%
Sitophilus zeamais [47]
  Activity: 9.57%
Tribolium castaneum [48]
  FDI: 18.64%
